Here are results for 20 compounds from US8895733B2 (Novartis AG, priority 2010, dated 2014).

The assay deals with T1, Nav 1.7 (Homo sapiens, UniProt Q15858).
T1 construct: expressed in transfected cells
T1 sequence (Q15858 whole entry): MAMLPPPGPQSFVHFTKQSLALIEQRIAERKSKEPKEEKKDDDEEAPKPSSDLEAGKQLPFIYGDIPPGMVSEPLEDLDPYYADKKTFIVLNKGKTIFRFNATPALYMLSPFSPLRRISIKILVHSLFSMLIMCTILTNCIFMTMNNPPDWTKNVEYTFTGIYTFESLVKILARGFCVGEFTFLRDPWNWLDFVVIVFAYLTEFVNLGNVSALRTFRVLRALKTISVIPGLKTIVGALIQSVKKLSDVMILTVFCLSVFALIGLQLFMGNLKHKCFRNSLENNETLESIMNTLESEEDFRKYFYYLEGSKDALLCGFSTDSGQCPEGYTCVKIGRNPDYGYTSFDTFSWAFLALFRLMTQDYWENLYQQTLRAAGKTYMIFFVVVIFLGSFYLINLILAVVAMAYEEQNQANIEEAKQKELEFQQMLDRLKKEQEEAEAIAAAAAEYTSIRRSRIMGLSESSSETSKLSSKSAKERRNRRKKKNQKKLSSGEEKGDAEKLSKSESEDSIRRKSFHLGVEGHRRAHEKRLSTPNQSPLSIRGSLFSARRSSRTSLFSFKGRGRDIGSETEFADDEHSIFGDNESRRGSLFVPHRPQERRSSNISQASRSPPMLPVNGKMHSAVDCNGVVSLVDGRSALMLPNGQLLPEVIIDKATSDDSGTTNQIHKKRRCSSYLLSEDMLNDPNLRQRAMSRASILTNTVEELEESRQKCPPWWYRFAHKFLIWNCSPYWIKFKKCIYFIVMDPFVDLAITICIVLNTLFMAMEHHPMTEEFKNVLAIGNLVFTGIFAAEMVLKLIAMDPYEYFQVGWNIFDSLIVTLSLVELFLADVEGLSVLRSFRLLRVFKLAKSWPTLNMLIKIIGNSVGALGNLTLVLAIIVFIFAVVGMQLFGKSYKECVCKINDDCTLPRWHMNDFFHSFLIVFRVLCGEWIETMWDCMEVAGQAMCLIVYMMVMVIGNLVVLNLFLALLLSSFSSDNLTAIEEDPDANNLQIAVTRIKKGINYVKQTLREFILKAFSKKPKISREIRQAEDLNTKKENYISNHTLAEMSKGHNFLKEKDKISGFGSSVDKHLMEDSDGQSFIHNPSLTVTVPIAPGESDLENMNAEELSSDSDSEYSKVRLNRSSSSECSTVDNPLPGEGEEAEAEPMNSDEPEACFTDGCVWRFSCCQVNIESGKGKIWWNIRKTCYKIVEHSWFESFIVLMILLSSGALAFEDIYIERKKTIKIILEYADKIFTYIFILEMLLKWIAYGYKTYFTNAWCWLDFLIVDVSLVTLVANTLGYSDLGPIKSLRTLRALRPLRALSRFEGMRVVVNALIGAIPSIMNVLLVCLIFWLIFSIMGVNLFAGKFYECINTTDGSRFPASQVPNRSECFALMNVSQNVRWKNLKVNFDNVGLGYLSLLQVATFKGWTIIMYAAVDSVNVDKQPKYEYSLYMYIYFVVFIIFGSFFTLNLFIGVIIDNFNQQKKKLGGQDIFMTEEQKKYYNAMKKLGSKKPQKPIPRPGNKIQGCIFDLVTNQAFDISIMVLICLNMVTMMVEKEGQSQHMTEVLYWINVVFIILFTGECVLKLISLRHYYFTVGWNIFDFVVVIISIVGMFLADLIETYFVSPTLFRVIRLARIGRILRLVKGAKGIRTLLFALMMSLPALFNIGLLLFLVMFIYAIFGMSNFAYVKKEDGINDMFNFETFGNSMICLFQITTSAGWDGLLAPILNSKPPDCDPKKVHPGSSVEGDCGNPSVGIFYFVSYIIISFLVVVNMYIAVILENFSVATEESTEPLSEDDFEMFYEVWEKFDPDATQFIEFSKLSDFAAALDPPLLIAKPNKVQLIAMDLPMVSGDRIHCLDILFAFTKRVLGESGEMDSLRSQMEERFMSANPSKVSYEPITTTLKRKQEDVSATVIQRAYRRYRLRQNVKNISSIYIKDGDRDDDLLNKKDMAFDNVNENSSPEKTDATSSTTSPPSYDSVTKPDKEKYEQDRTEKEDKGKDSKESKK
As to the kind of experiment: Whole-cell voltage clamp electrophysiology, automated patch clamp (marker c in Table of Examples). To be noted: marker c = Automated patch clamp data; read-out: Nav 1.7 activity. Format: cell-based. Put shortly: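 A voltage protocol weighted toward inactivated-state block was used to test compounds on stably expressing cells, with pulses from −65 mV holding to −10 mV test and −100 mV. Currents came from whole-cell automated patch-clamp recordings, either IonWorks Quattro or other automated instruments, usually in perforated-patch mode.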
Take `CN(c1ccccc1)c1nc(N)nc(-c2noc(N3C[C@@H]4[C@@H](COCC5CC5)[C@@H]4C3)n2)n1` [Example 395, 6-{5-[6-[(cyclopropylmethoxy)methyl]-3-azabicyclo[3.1.0]hexan-3-yl]-1,2,4-oxadiazol-3-yl}-2-N-methyl-2-N-phenyl-1,3,5-triazine-2,4-diamine]: the IC50 was determined as 2660 nM.
For the compound `CN(c1ccccc1)c1nc(N)nc(-c2noc(N3C[C@@H]4[C@@H](COCCC(F)(F)F)[C@@H]4C3)n2)n1` [Example 396, 2-N-methyl-2-N-phenyl-6-{5-[6-[(3,3,3-trifluoropropoxy)methyl]-3-azabicyclo[3.1.0]hexan-3-yl]-1,2,4-oxadiazol-3-yl}-1,3,5-triazine-2,4-diamine], the IC50 was determined as 1130 nM.
For `CC(C)OC[C@@H]1[C@H]2CN(c3nc(-c4nc(N)nc(N(C)c5ccccc5)n4)no3)C[C@@H]12` [Example 397, 2-N-methyl-2-N-phenyl-6-{5-[6-[(propan-2-yloxy)methyl]-3-azabicyclo[3.1.0]hexan-3-yl]-1,2,4-oxadiazol-3-yl}-1,3,5-triazine-2,4-diamine], the IC50 is 3940 nM.
As for `CC(C)OC[C@@H]1[C@H]2CN(c3nc(-c4nc(N)nc(Nc5ccccc5)n4)no3)C[C@@H]12` [Example 398, 2-N-phenyl-6-{5-[(1R,5S,6S)-6-[(propan-2-yloxy)methyl]-3-azabicyclo[3.1.0]hexan-3-yl]-1,2,4-oxadiazol-3-yl}-1,3,5-triazine-2,4-diamine], the IC50 amounted to 691 nM.
As for `CN(c1ccccc1)c1nc(N)nc(-c2noc(N3C[C@@H]4[C@@H](COC5CCCC5)[C@@H]4C3)n2)n1` [Example 399, 6-{5-[6-[(cyclopentyloxy)methyl]-3-azabicyclo[3.1.0]hexan-3-yl]-1,2,4-oxadiazol-3-yl}-2-N-methyl-2-N-phenyl-1,3,5-triazine-2,4-diamine], the IC50 was found to be 620 nM.
With `Nc1nc(Nc2ccccc2)nc(-c2noc(N3C[C@@H]4[C@@H](COC5CCCC5)[C@@H]4C3)n2)n1` [Example 400, 6-{5-[6-[(cyclopentyloxy)methyl]-3-azabicyclo[3.1.0]hexan-3-yl]-1,2,4-oxadiazol-3-yl}-2-N-phenyl-1,3,5-triazine-2,4-diamine], the IC50 was 292 nM.
The value for `CN(c1ccccc1)c1nc(N)nc(-c2noc(C(=O)N3CCC(CSCC(F)(F)F)CC3)n2)n1` [Example 401, 2-N-Methyl-2-N-phenyl-6-{5-[(4-{[(2,2,2-trifluoroethyl)sulfanyl]methyl}piperidin-1-yl)carbonyl]-1,2,4-oxadiazol-3-yl}-1,3,5-triazine-2,4-diamine] was 1040 nM; that for `CN(c1ccccc1)c1nc(N)nc(-c2noc(C(=O)N3C[C@@H]4[C@@H](COCC(F)(F)F)[C@@H]4C3)n2)n1` [Example 402, 2-N-methyl-2-N-phenyl-6-(5-{[-6-[(2,2,2-trifluoroethoxy)methyl]-3-azabicyclo[3.1.0]hexan-3-yl]carbonyl}-1,2,4-oxadiazol-3-yl)-1,3,5-triazine-2,4-diamine] was 3970 nM.
Under `CN(c1ccccc1)c1nc(N)nc(-c2noc(C(=O)N3C[C@@H]4[C@@H](COCCC(F)(F)F)[C@@H]4C3)n2)n1` [Example 403, 2-N-methyl-2-N-phenyl-6-(5-{[-6-[(3,3,3-trifluoropropoxy)methyl]-3-azabicyclo[3.1.0]hexan-3-yl]carbonyl}-1,2,4-oxadiazol-3-yl)-1,3,5-triazine-2,4-diamine] stands 1290 nM.
For the compound `CN(c1ccccc1)c1nc(N)nc(-c2noc(C(=O)N3C[C@@H]4[C@@H](COCC5CC5)[C@@H]4C3)n2)n1` [Example 404, 6-(5-{[-6-[(cyclopropylmethoxy)methyl]-3-azabicyclo[3.1.0]hexan-3-yl]carbonyl}-1,2,4-oxadiazol-3-yl)-2-N-methyl-2-N-phenyl-1,3,5-triazine-2,4-diamine], the IC50 was found to be 3460 nM.
For the compound `CN(c1ccccc1)c1nc(N)nc(-c2noc(C(=O)N3C[C@@H]4[C@@H](COC5CCCC5)[C@@H]4C3)n2)n1` [Example 405, 6-(5-{[-6-[(cyclopentyloxy)methyl]-3-azabicyclo[3.1.0]hexan-3-yl]carbonyl}-1,2,4-oxadiazol-3-yl)-2-N-methyl-2-N-phenyl-1,3,5-triazine-2,4-diamine], the IC50 was 1280 nM.
Regarding `CN(c1ccccc1)c1nc(N)nc(-c2noc(C(=O)N3C[C@@H]4[C@@H](COc5ccccc5)[C@@H]4C3)n2)n1` [Example 406, 2-N-methyl-6-(5-{[-6-(phenoxymethyl)-3-azabicyclo[3.1.0]hexan-3-yl]carbonyl}-1,2,4-oxadiazol-3-yl)-2-N-phenyl-1,3,5-triazine-2,4-diamine], the IC50 was determined as 624 nM.
`CN(c1cccc(F)c1)c1nc(N)nc(-c2noc(-c3ccc(OCC(F)(F)F)nc3)n2)n1` [Example 407, 2-N-(3-fluorophenyl)-2-N-methyl-6-{5-[6-(2,2,2-trifluoroethoxy)pyridin-3-yl]-1,2,4-oxadiazol-3-yl}-1,3,5-triazine-2,4-diamine]: the IC50 worked out at 201 nM.
Turning to `CN(c1nc(N)nc(-c2noc(-c3ccc(OCC(F)(F)F)nc3)n2)n1)c1ccccc1F` [Example 408, 2-N-(2-fluorophenyl)-2-N-methyl-6-{5-[6-(2,2,2-trifluoroethoxy)pyridin-3-yl]-1,2,4-oxadiazol-3-yl}-1,3,5-triazine-2,4-diamine], the IC50 was 139 nM.
For `CN(c1cccc(Cl)c1)c1nc(N)nc(-c2noc(-c3ccc(OCC(F)(F)F)nc3)n2)n1` [Example 409, 2-N-(3-chlorophenyl)-2-N-methyl-6-{5-[6-(2,2,2-trifluoroethoxy)pyridin-3-yl]-1,2,4-oxadiazol-3-yl}-1,3,5-triazine-2,4-diamine], the IC50 came to 261 nM.
Under `CN(c1ccc(F)cc1)c1nc(N)nc(-c2noc(-c3ccc(OCC(F)(F)F)nc3)n2)n1` [Example 410, 2-N-(4-fluorophenyl)-2-N-methyl-6-{5-[6-(2,2,2-trifluoroethoxy)pyridin-3-yl]-1,2,4-oxadiazol-3-yl}-1,3,5-triazine-2,4-diamine] stands 1150 nM; under `Cc1cccc(N(C)c2nc(N)nc(-c3noc(-c4ccc(OCC(F)(F)F)nc4)n3)n2)c1` [Example 412, 2-N-methyl-2-N-(3-methylphenyl)-6-{5-[6-(2,2,2-trifluoroethoxy)pyridin-3-yl]-1,2,4-oxadiazol-3-yl}-1,3,5-triazine-2,4-diamine], 82 nM; under `Nc1nc(Nc2ccc(F)c(Cl)c2)nc(-c2noc(-c3ccc(OCC(F)(F)F)nc3)n2)n1` [Example 413, 2-N-(3-Chloro-4-fluorophenyl)-6-{5-[6-(2,2,2-trifluoroethoxy)pyridin-3-yl]-1,2,4-oxadiazol-3-yl}-1,3,5-triazine-2,4-diamine], 9020 nM.
The value for `CN(c1ccc(F)c(Cl)c1)c1nc(N)nc(-c2noc(-c3ccc(OCC(F)(F)F)nc3)n2)n1` [Example 414, 2-N-(3-Chloro-4-fluorophenyl)-2-N-methyl-6-{5-[6-(2,2,2-trifluoroethoxy)pyridin-3-yl]-1,2,4-oxadiazol-3-yl}-1,3,5-triazine-2,4-diamine] was 410 nM; that for `COc1cccc(-c2nc(-c3nc(N)nc(N(C)c4ccccc4)n3)no2)n1` [Example 415, 6-[5-(6-methoxypyridin-2-yl)-1,2,4-oxadiazol-3-yl]-2-N-methyl-2-N-phenyl-1,3,5-triazine-2,4-diamine] was 567 nM.
